In general, pIC50 refers to −log10 of the IC50, conventionally taken in molar units. Higher therefore signals a small IC50.

pIC50: −log10 of the molar value.

This test addresses T1, fMet-Leu-Phe receptor (Homo sapiens, UniProt P21462).
T1 sequence (P21462 whole entry): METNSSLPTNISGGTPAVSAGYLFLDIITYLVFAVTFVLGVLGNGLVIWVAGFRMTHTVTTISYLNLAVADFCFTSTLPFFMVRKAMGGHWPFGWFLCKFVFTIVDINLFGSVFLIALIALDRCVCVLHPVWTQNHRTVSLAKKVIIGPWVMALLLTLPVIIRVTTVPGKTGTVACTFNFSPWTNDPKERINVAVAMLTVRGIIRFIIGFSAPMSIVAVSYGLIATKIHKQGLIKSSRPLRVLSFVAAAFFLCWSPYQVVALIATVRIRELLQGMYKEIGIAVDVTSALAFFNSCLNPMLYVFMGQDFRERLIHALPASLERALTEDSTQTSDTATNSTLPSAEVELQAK
The test is described as follows: formyl peptide receptor binders – dose response (AID 519).
In the case of `CCOc1ccc(C(=O)C2C(=O)C(=O)N(CC3CCCO3)C2c2ccc(C)o2)cc1` (configuration not stated) [(4Z)-4-[(4-ethoxyphenyl)-hydroxymethylidene]-5-(5-methyl-2-furanyl)-1-(2-oxolanylmethyl)pyrrolidine-2,3-dione], the pIC50 was 4.68.

Take `COc1ccc(OC)c(C2C(C(=O)c3cccs3)C(=O)C(=O)N2c2cc(C)on2)c1` (configuration not stated) [2-(2,5-dimethoxyphenyl)-1-(5-methyl-1,2-oxazol-3-yl)-4-oxidanyl-3-thiophen-2-ylcarbonyl-2H-pyrrol-5-one]: the pIC50 was less than 4.18.

As to `CCCCc1c(O)n(-c2ccccc2)n(-c2ccccc2)c1=O` [3,5-Dioxo-1,2-diphenyl-4-n-butylpyrazolidine], the pIC50 was 5.28.

Consider `COCCCN1C(=O)C(=O)C(C(=O)c2ccccc2)C1c1ccc2c(c1)OCO2` (configuration not stated) [(4E)-5-(1,3-benzodioxol-5-yl)-1-(3-methoxypropyl)-4-[oxidanyl(phenyl)methylidene]pyrrolidine-2,3-dione], for which the pIC50 is 4.53.

`Cc1nc2c(C)cccn2c1C(=O)C1C(=O)C(=O)N(CCN2CCOCC2)C1c1cccs1` (configuration not stated) [(4E)-4-[(2,8-dimethyl-3-imidazo[1,2-a]pyridinyl)-hydroxymethylidene]-1-[2-(4-morpholinyl)ethyl]-5-thiophen-2-ylpyrrolidine-2,3-dione] had a pIC50 of less than 4.18.

Consider `COc1cc(C2C(C(=O)c3ccc(C)o3)C(=O)C(=O)N2Cc2cccnc2)ccc1O` (configuration not stated) [2-(3-methoxy-4-oxidanyl-phenyl)-3-(5-methylfuran-2-yl)carbonyl-4-oxidanyl-1-(pyridin-3-ylmethyl)-2H-pyrrol-5-one], for which the pIC50 was less than 4.18.

In the case of `COc1cccc(C2C(C(=O)c3cc4ccccc4o3)C(=O)C(=O)N2c2cc(C)on2)c1OC` (configuration not stated) [3-(1-benzofuran-2-carbonyl)-2-(2,3-dimethoxyphenyl)-4-hydroxy-1-(5-methyl-1,2-oxazol-3-yl)-2H-pyrrol-5-one], the pIC50 was less than 4.18.

`O=C1C(=O)N(CCCN2CCOCC2)C(c2ccccn2)C1C(=O)c1cc2ccccc2o1` (configuration not stated) [3-(1-benzofuran-2-carbonyl)-4-hydroxy-1-(3-morpholin-4-ylpropyl)-2-pyridin-2-yl-2H-pyrrol-5-one] showed a pIC50 of 4.22.

In turn, `COCCCN1C(=O)C(=O)C(C(=O)c2ccc3c(c2)CC(C)O3)C1c1cccnc1` (configuration not stated) [(4E)-1-(3-methoxypropyl)-4-[(2-methyl-2,3-dihydro-1-benzofuran-5-yl)-oxidanyl-methylidene]-5-pyridin-3-yl-pyrrolidine-2,3-dione] showed a negative-log IC50 (pIC50) of less than 4.18.

For the compound `COc1cc(C2C(C(=O)c3ccc4c(c3)CC(C)O4)C(=O)C(=O)N2CCCn2ccnc2)ccc1O` (configuration not stated) [(4E)-1-(3-imidazol-1-ylpropyl)-5-(3-methoxy-4-oxidanyl-phenyl)-4-[(2-methyl-2,3-dihydro-1-benzofuran-5-yl)-oxidanyl-methylidene]pyrrolidine-2,3-dione], the pIC50 is 4.24.

As for `O=C1C(=O)N(c2ncccn2)C(c2ccc(Cl)cc2)C1C(=O)c1ccco1` (configuration not stated) [2-(4-chlorophenyl)-3-(furan-2-carbonyl)-4-hydroxy-1-pyrimidin-2-yl-2H-pyrrol-5-one], the negative logarithm of the IC50 (pIC50) was less than 4.18.

For `O=C1C(=O)N(CCOCCO)C(c2cccs2)C1C(=O)c1cccs1` (configuration not stated) [1-[2-(2-hydroxyethyloxy)ethyl]-4-oxidanyl-2-thiophen-2-yl-3-thiophen-2-ylcarbonyl-2H-pyrrol-5-one], the pIC50 is 4.67.

Compound `CCOc1cccc(C(=O)C2C(=O)C(=O)N(Cc3cccnc3)C2c2ccco2)c1` (configuration not stated) [(4Z)-4-[(3-ethoxyphenyl)-hydroxymethylidene]-5-(2-furanyl)-1-(3-pyridinylmethyl)pyrrolidine-2,3-dione] showed a pIC50 of less than 4.18.

Take `O=C1C(=O)N(CCN2CCOCC2)C(c2ccccc2)C1C(=O)c1cccs1` (configuration not stated) [1-(2-morpholin-4-ylethyl)-4-oxidanyl-2-phenyl-3-thiophen-2-ylcarbonyl-2H-pyrrol-5-one]: the negative-log IC50 (pIC50) is less than 4.18.

Consider `O=C1C(=O)N(CC2CCCO2)C(c2cccnc2)C1C(=O)c1ccco1` (configuration not stated) [3-(furan-2-carbonyl)-4-hydroxy-1-(oxolan-2-ylmethyl)-2-pyridin-3-yl-2H-pyrrol-5-one], for which the pIC50 was 4.26.

For `COCCN1C(=O)C(=O)C(C(=O)c2ccco2)C1c1cccc(Oc2ccccc2)c1` (configuration not stated) [3-(furan-2-carbonyl)-4-hydroxy-1-(2-methoxyethyl)-2-(3-phenoxyphenyl)-2H-pyrrol-5-one], the pIC50 was 4.25.

For `COc1cccc2cc(C(=O)C3C(=O)C(=O)N(Cc4ccco4)C3c3cccnc3)oc12` (configuration not stated) [1-(2-furanylmethyl)-4-hydroxy-3-[(7-methoxy-2-benzofuranyl)-oxomethyl]-2-(3-pyridinyl)-2H-pyrrol-5-one], the pIC50 is less than 4.18.

`COc1cc(C2C(C(=O)c3cccs3)C(=O)C(=O)N2Cc2ccco2)cc(OC)c1OC` (configuration not stated) [1-(2-furanylmethyl)-4-hydroxy-3-[oxo(thiophen-2-yl)methyl]-2-(3,4,5-trimethoxyphenyl)-2H-pyrrol-5-one]: the pIC50 was 4.57.

For the compound `COC(=O)c1ccc(C2C(C(=O)c3ccc(OC)cc3)C(=O)C(=O)N2Cc2ccco2)cc1` (configuration not stated) [4-[(3Z)-1-(2-furanylmethyl)-3-[hydroxy-(4-methoxyphenyl)methylidene]-4,5-dioxo-2-pyrrolidinyl]benzoic acid methyl ester], the pIC50 was 4.37.

With `COCCCN1C(=O)C(=O)C(C(=O)c2ccco2)C1c1cccc(Br)c1` (configuration not stated) [2-(3-bromophenyl)-3-(furan-2-carbonyl)-4-hydroxy-1-(3-methoxypropyl)-2H-pyrrol-5-one], the pIC50 is 4.51.

As for `CCCOc1ccc(C2C(C(=O)c3ccc(C)o3)C(=O)C(=O)N2Cc2cccnc2)cc1` (configuration not stated) [3-(5-methylfuran-2-yl)carbonyl-4-oxidanyl-2-(4-propoxyphenyl)-1-(pyridin-3-ylmethyl)-2H-pyrrol-5-one], the negative logarithm of the IC50 (pIC50) was 4.37.

With `COc1ccc(C2C(C(=O)c3ccco3)C(=O)C(=O)N2CCc2ccccc2)cc1OC` (configuration not stated) [2-(3,4-dimethoxyphenyl)-3-(furan-2-carbonyl)-4-hydroxy-1-(2-phenylethyl)-2H-pyrrol-5-one], the pIC50 was 4.43.

`COc1ccccc1C1C(C(=O)c2ccccc2)C(=O)C(=O)N1CC(C)O` (configuration not stated) [(4Z)-4-[hydroxy(phenyl)methylene]-1-(2-hydroxypropyl)-5-(2-methoxyphenyl)pyrrolidine-2,3-quinone] showed a pIC50 of 4.61.

Turning to `COC(=O)c1[nH]c(C)c(C(=O)C2C(=O)C(=O)N(CCN3CCOCC3)C2c2cccs2)c1C` (configuration not stated), the pIC50 was 5.30.

As to `CCOc1cc(C2C(C(=O)c3ccc(C)o3)C(=O)C(=O)N2CCc2ccccc2)ccc1O` (configuration not stated) [2-(3-ethoxy-4-hydroxyphenyl)-4-hydroxy-3-(5-methylfuran-2-carbonyl)-1-(2-phenylethyl)-2H-pyrrol-5-one], the pIC50 was 4.52.

For the compound `COc1cccc(C2C(C(=O)c3ccc(OC)c(OC)c3)C(=O)C(=O)N2c2cc(C)on2)c1` (configuration not stated) [(4E)-4-[(3,4-dimethoxyphenyl)-hydroxy-methylene]-5-(3-methoxyphenyl)-1-(5-methylisoxazol-3-yl)pyrrolidine-2,3-quinone], the pIC50 was less than 4.18.

Regarding `CCOc1cccc(C(=O)C2C(=O)C(=O)N(CCOC)C2c2ccc(C)o2)c1` (configuration not stated) [(4Z)-4-[(3-ethoxyphenyl)-hydroxymethylidene]-1-(2-methoxyethyl)-5-(5-methyl-2-furanyl)pyrrolidine-2,3-dione], the pIC50 is 4.87.

As for `Cc1ccc(C)c(C(=O)C2C(=O)C(=O)N(CCCn3ccnc3)C2c2ccncc2)c1` (configuration not stated) [(4E)-4-[(2,5-dimethylphenyl)-hydroxy-methylene]-1-(3-imidazol-1-ylpropyl)-5-(4-pyridyl)pyrrolidine-2,3-quinone], the pIC50 is less than 4.18.

Take `Cc1ccc(C2C(C(=O)c3sc(C)nc3C)C(=O)C(=O)N2CCN2CCOCC2)o1` (configuration not stated) [3-(2,4-dimethyl-1,3-thiazole-5-carbonyl)-4-hydroxy-2-(5-methylfuran-2-yl)-1-(2-morpholin-4-ylethyl)-2H-pyrrol-5-one]: the pIC50 is less than 4.18.

The compound `C=C(c1ccc(Br)cc1)c1sc(N2CCCC2)nc1O` [(5Z)-5-[1-(4-bromophenyl)ethylidene]-2-(1-pyrrolidinyl)-4-thiazolone] had a pIC50 of less than 4.18.

Turning to `CCOc1cccc(C(=O)C2C(=O)C(=O)N(Cc3ccco3)C2c2ccncc2)c1` (configuration not stated) [(4Z)-1-(2-furfuryl)-4-[hydroxy(m-phenetyl)methylene]-5-(4-pyridyl)pyrrolidine-2,3-quinone], the pIC50 is less than 4.18.

`CCCOc1ccc(C2C(C(=O)c3ccc(C)o3)C(=O)C(=O)N2CCCn2ccnc2)cc1` (configuration not stated) [1-(3-imidazol-1-ylpropyl)-3-(5-methylfuran-2-yl)carbonyl-4-oxidanyl-2-(4-propoxyphenyl)-2H-pyrrol-5-one] showed a negative-log IC50 (pIC50) of 4.86.

`COc1cc(C2C(C(=O)c3ccco3)C(=O)C(=O)N2c2cc(C)on2)cc(Br)c1O` (configuration not stated) [2-(3-bromanyl-5-methoxy-4-oxidanyl-phenyl)-3-(furan-2-ylcarbonyl)-1-(5-methyl-1,2-oxazol-3-yl)-4-oxidanyl-2H-pyrrol-5-one]: the pIC50 is 4.32.

In turn, `CC1=NC(C)=C(C#N)C(c2ccc3ncccc3c2)C1C#N` (configuration not stated) gave a pIC50 of less than 4.18.

As for `C=CCOc1cccc(C2C(C(=O)c3ccco3)C(=O)C(=O)N2CCN2CCOCC2)c1` (configuration not stated) [3-(furan-2-carbonyl)-4-hydroxy-1-(2-morpholin-4-ylethyl)-2-(3-prop-2-enoxyphenyl)-2H-pyrrol-5-one], the pIC50 was less than 4.18.

`COc1cc(C2C(C(=O)c3ccc(C)o3)C(=O)C(=O)N2CCc2ccccc2)ccc1O` (configuration not stated) [2-(3-methoxy-4-oxidanyl-phenyl)-3-(5-methylfuran-2-yl)carbonyl-4-oxidanyl-1-(2-phenylethyl)-2H-pyrrol-5-one] showed a pIC50 of 4.71.

Regarding `COCCN1C(=O)C(=O)C(C(=O)c2cccs2)C1c1ccccc1` (configuration not stated) [1-(2-methoxyethyl)-4-oxidanyl-2-phenyl-3-thiophen-2-ylcarbonyl-2H-pyrrol-5-one], the pIC50 was less than 4.18.

The values are drawn from BindingDB's records for doi:10.7270/Q2J67FB5 (Nmmlsc, 2007).
